Experimental findings from paper PMC7180830, “Scaffold Hopping in Discovery of HIV-1 Non-Nucleoside Reverse Transcriptase Inhibitors: From CH(CN)-DABOs to CH(CN)-DAPYs” (Molecules, 2020) are described below.

Data set [1] concerns HIV-1 L100I mutant strain. The data set is described as follows: Anti-HIV assay against L100I mutant strain in MT-4 cells. Conditions: Human immunodeficiency virus 1, MT4, read-out: EC50 L100I. It is filed as cell-based.
Procedure: (§2) Evaluation of the antiviral activity of the compounds against HIV in MT-4 cells was performed using the MTT assay as previously described [24, 25]. […] Prior to use in our assays, every freshly grown virus stock was the subject of a genotypic analysis. In addition to the genotypic analysis, every stock was subject to a phenotypic analysis using a panel of relevant reference compounds in MT-4 cells. […] Stock solutions (10× final concentration) of test compounds were added in 25 μL volumes to two series of triplicate wells so as to allow simultaneous evaluation of their effects on mock- and HIV-infected cells at the beginning of each experiment. Serial 5-fold dilutions of test compounds were made directly in flat-bottomed 96-well microtiter trays using a Biomek 3000 robot (Beckman instruments, Fullerton, CA). Untreated HIV- and mock-infected cell samples were included as controls. HIV stock (50 μL) at 100–300 CCID50 (50% cell culture infectious doses) and culture medium (final 200 μL volume per well) were added to either the infected or mock-infected wells of the microtiter tray. Mock-infected cells were used to evaluate the effects of test compounds on uninfected cells in order to assess the cytotoxicity of the test compounds. Exponentially growing MT-4 cells were centrifuged for 5 min at 220× g and the supernatant was discarded. The MT-4 cells were resuspended at 6 × 10^5 cells/mL and 50 μL volumes were transferred to the microtiter tray wells. Five days after infection, the viability of mock- and HIV-infected cells was examined spectrophotometrically using the MTT assay. The MTT assay is based on the reduction of yellow colored 3-(4,5-dimethylthiazol-2-yl)-2,5-diphenyltetrazolium bromide (MTT) (Acros Organics, Geel, Belgium) by mitochondrial dehydrogenase activity in metabolically active cells to a blue-purple formazan that can be measured spectrophotometrically. The absorbances were read in an eight-channel computer-controlled photometer (Infinite M1000, Tecan, Männedorf, Switzerland) at two wavelengths (540 and 690 nm). All data were calculated using the median absorbance value of three wells.
Data set [2] relates to HIV-1 K103N mutant strain. The data set is described as follows: Anti-HIV assay against K103N mutant strain in MT-4 cells. Format: cell-based. The settings on record: Human immunodeficiency virus 1, MT4, read-out: EC50 K103N.
Procedure: as §2
Another data set has as its system HIV-1 IIIB. The data set can be described thus: Anti-HIV assay against wild-type HIV-1 (IIIB) in MT-4 cells, MTT method. Conditions: for SI (selectivity index, ratio CC50/EC50 (WT)): CC50/EC50 WT HIV-1 IIIB. It is filed as cell-based. On the procedure:
(§1) Untreated HIV- and mock-infected cell samples were included as controls. […] Five days after infection, the viability of mock- and HIV-infected cells was examined spectrophotometrically using the MTT assay. […] All data were calculated using the median absorbance value of three wells.

The test system of data set [3] is HIV-1 F227L + V106A mutant strain. The data set can be described thus: Anti-HIV assay against double mutant F227L + V106A in MT-4 cells. Format: cell-based. Conditions: Human immunodeficiency virus 1, MT4, read-out: EC50 F227L + V106A.
Procedure: as §2
For data set [4], the system named is HIV-1 Y181C mutant strain. The data set can be described thus: Anti-HIV assay against Y181C mutant strain in MT-4 cells. Format: cell-based. Conditions: Human immunodeficiency virus 1, MT4, read-out: EC50 Y181C.
Procedure: as §2
The test system of data set [5] is HIV-1 K103N + Y181C mutant strain. The data set is described as follows: Anti-HIV assay against double mutant K103N + Y181C in MT-4 cells. The settings on record: Human immunodeficiency virus 1, MT4, read-out: EC50 K103N + Y181C. Format: cell-based.
Procedure: as §2
Data set [6] in a line: Cytotoxicity in mock-infected MT-4 cells, MTT method. Conditions: human, mock-infected (uninfected) MT-4 cells. On the procedure:
as §1
A general note: Formazan colour is commonly taken as a measure of viable cells.

Data set [7] deals with HIV-1 E138K mutant strain. The data set can be described thus: Anti-HIV assay against E138K mutant strain in MT-4 cells. Format: cell-based. Conditions: Human immunodeficiency virus 1, MT4, read-out: EC50 E138K.
Procedure: as §2
[8] abbreviates: Human immunodeficiency virus 1, IIIB, MT4, read-out: EC50 HIV-1 IIIB.
Setting [9] is: Human immunodeficiency virus 1, MT4, wild-type HIV-1 IIIB, MT-4 cells, protection against HIV-induced cytopathogenicity, read-out: EC50 HIV-1 IIIB.

Like-named read-outs stand apart in the source and are kept apart here. A value given as a limit tells only on which side of the number the result lay.

As for `Cc1cc(C#N)ccc1C(C#N)c1ccnc(Nc2ccc(C#N)cc2)n1` (centres unmarked) [Compound A3, 4-(4-(cyano-(2-methyl-4-cyanophenyl)methyl)-pyrimidin-2-ylamino)benzonitrile], the melting point is 213.5 to 214.6 °C. Moreover, in [1], the EC50 was 5.03 ± 0.55 µM. Moreover, in [2], the EC50 amounted to 1.96 ± 0.45 µM. In addition, the “SI (selectivity index, ratio CC50/EC50 (WT))” value with HIV-1 IIIB (MT-4 cells) is reported as 157. Further, the EC50 with HIV-1 IIIB (setting [8]) was 0.069 ± 0.008 µM. For the same compound, the “fold increase of antiviral activity compared with A2” value in the data set on HIV-1 IIIB (WT HIV-1 IIIB, relative to A2) is 17 fold. Further, the EC50 in [3] is more than 10.9 µM. In addition, the EC50 in [4] came out at 1.71 ± 0.13 µM. Moreover, the EC50 in data set [5] was more than 10.9 µM. Also, the CC50 at 5 days in [6] is 10.9 ± 3.6 µM. The EC50 in data set [7] was determined as 3.04 ± 0.39 µM.
With `Cc1cc(C#N)cc(C)c1Oc1nc(Nc2ccc(C#N)cc2)nc(N)c1Br` [Etravirine, etravirine, reference compound], the EC50 turned out to be 0.008 ± 0.002 µM in data set [1]; 0.003 ± 0.001 µM in [2]; 0.005 ± 0.001 µM in the data set with HIV-1 IIIB (setting [8]); 0.014 ± 0.005 µM in [3]; 0.017 ± 0.003 µM in data set [4]; 0.04 ± 0.01 µM in [5]. In data set [7], the EC50 was 0.008 ± 0.004 µM. The compound further gave a CC50 at 5 days in data set [6] of more than 4.6 µM.
Consider `N#Cc1ccc(Nc2nccc(C(C#N)c3c(Cl)cc(C#N)cc3Cl)n2)cc1` (centres unmarked) [Compound A10, 4-(4-(cyano-(2,6-dichloro-4-cyanophenyl)methyl)-pyrimidin-2-ylamino)benzonitrile], for which the melting point lay in the range of 152.5 to 153.2 °C. Further, the EC50 in [1] came out at 2.32 ± 0.48 µM. For the same compound, the EC50 in data set [2] came out at 1.78 ± 0.12 µM. Further, in the data set on HIV-1 IIIB (MT-4 cells), the “SI (selectivity index, ratio CC50/EC50 (WT))” value came to 55. The EC50 with HIV-1 IIIB (setting [8]) amounted to 0.082 ± 0.02 µM. Moreover, the EC50 in data set [3] was more than 4.49 µM. The EC50 in data set [4] is 2.2 ± 0.27 µM. For the same compound, the EC50 in data set [5] is more than 4.49 µM. The same compound displayed a CC50 at 5 days in data set [6] of 4.5 ± 1.3 µM. Further, the EC50 in data set [7] stood at 2.19 ± 0.22 µM.
Compound `Cc1cc(C(C#N)c2ccnc(Nc3ccc(C#N)cc3)n2)ccc1C#N` (centres unmarked) [Compound A2, 4-(4-(cyano-(3-methyl-4-cyanophenyl)methyl)-pyrimidin-2-ylamino)benzonitrile] gave a melting point of 223.7 to 224.9 °C. Moreover, the EC50 in data set [1] is more than 16.1 µM. Further, the 50% effective concentration (EC50) in [2] is more than 16.1 µM. In addition, the “SI (selectivity index, ratio CC50/EC50 (WT))” value in the data set with HIV-1 IIIB (MT-4 cells) is 14. The EC50 with HIV-1 IIIB (setting [8]) was 1.17 ± 0.34 µM. In addition, the EC50 in [3] was more than 16.1 µM. Also, the EC50 in data set [4] was more than 16.1 µM. For the same compound, the EC50 in [5] is more than 16.1 µM. This compound displayed a CC50 at 5 days in data set [6] of 16.1 ± 3.6 µM. In [7], the EC50 is more than 16.1 µM.
`COc1cc(C(C#N)c2ccnc(Nc3ccc(C#N)cc3)n2)ccc1C#N` (centres unmarked) [Compound A4, 4-(4-(cyano-(3-methoxy-4-cyanophenyl)methyl)-pyrimidin-2-ylamino)benzonitrile] yielded a melting point of 156.2 to 157 °C. In data set [1], the concentration giving a half-maximal response (EC50) is not below 61.4 µM. Moreover, the concentration for a half-maximal effect (EC50) in data set [2] is not below 62.2 µM. Further, the “SI (selectivity index, ratio CC50/EC50 (WT))” value with HIV-1 IIIB (MT-4 cells) is 7. The EC50 in the data set with HIV-1 IIIB (setting [8]) was found to be 11.7 ± 12.1 µM. The EC50 in [3] is not below 61 µM. In addition, in [4], the EC50 is not below 48.1 µM. Moreover, the EC50 in [5] is not below 65.7 µM. In [6], this compound showed a CC50 at 5 days of 78.4 ± 10.4 µM. The EC50 in data set [7] is not below 56.6 µM.
Compound `N#Cc1ccc(Nc2nccc(C(C#N)c3ccc(C#N)cc3C(F)(F)F)n2)cc1` (centres unmarked) [Compound A6, 4-(4-(cyano-(2-trifluoromethyl-4-cyanophenyl)methyl)-pyrimidin-2-ylamino)benzonitrile] registered a melting point of 236.7 to 237.5 °C. Also, in data set [1], the EC50 was more than 6.23 µM. Moreover, in data set [2], the EC50 is more than 6.23 µM. In addition, the “SI (selectivity index, ratio CC50/EC50 (WT))” value in the data set with HIV-1 IIIB (MT-4 cells) was 13. In addition, the EC50 in the data set on HIV-1 IIIB (setting [8]) is 0.49 ± 0.3 µM. Also, the half-maximal effective concentration (EC50) in data set [3] is more than 6.23 µM. Also, the 50% effective concentration (EC50) in [4] was 2.29 ± 0.02 µM. Also, the EC50 in [5] was more than 6.23 µM. This compound also had a CC50 at 5 days in [6] of 6.2 ± 1.4 µM. Also, the EC50 in data set [7] is more than 6.23 µM.
Take `Cc1cc(C#N)c(Br)cc1C(C#N)c1ccnc(Nc2ccc(C#N)cc2)n1` (centres unmarked) [Compound A12, 4-(4-(cyano-(2-methyl-5-bromo-4-cyanophenyl)methyl)-pyrimidin-2-ylamino)benzonitrile]: the EC50 is more than 13.2 µM in data set [1]; 2.52 ± 0.42 µM in data set [2]; 0.24 ± 0.04 µM in the data set with HIV-1 IIIB (setting [8]); more than 13.2 µM in data set [3]; 2.78 ± 0.36 µM in data set [4]; more than 13.2 µM in data set [5]. For the same compound, the EC50 in data set [7] amounted to 3.73 ± 0.59 µM. Further, it took 13.2 ± 1.6 µM to reach half-maximal cytotoxicity in [6] (CC50 at 5 days).
As for `Cc1cc(/C=C/C#N)cc(C)c1Nc1ccnc(Nc2ccc(C#N)cc2)n1` [Rilpivirine, rilpivirine, reference compound], the EC50 in [1] was 0.002 ± 0.001 µM; in [2], 0.001 ± 0.0002 µM; in the data set on HIV-1 IIIB (setting [8]), 0.0016 ± 0.0003 µM; in [3], 0.04 ± 0.01 µM; in [4], 0.003 ± 0.001 µM; in data set [5] it was 0.009 ± 0.002 µM. The EC50 in data set [7] is 0.003 ± 0.001 µM. In addition, the “SI (selectivity index, ratio CC50/EC50 (WT))” value in the data set on HIV-1 IIIB (MT-4 cells) was 3747. Moreover, it took 5.9 ± 0.3 µM to reach half-maximal cytotoxicity in data set [6] (CC50 at 5 days).
As for `Cc1c(C(C#N)c2ccnc(Nc3ccc(C#N)cc3)n2)ccc(C#N)c1Cl` (centres unmarked) [Compound A11, 4-(4-(cyano-(2-methyl-3-chloro-4-cyanophenyl)methyl)-pyrimidin-2-ylamino)benzonitrile], the EC50 in data set [1] was 2.32 ± 0.48 µM; in data set [2], more than 6.11 µM; with HIV-1 IIIB (setting [8]) it was 0.3 ± 0.03 µM; in [3], more than 6.11 µM; in data set [4] it was more than 6.11 µM; in [5], more than 6.11 µM. In addition, the EC50 in data set [7] is more than 6.11 µM. This compound had a CC50 at 5 days in data set [6] of 6.1 ± 0.5 µM.
For the compound `O=C1Nc2ccc(Cl)cc2[C@@](C#CC2CC2)(C(F)(F)F)O1` [Efavirenz, efavirenz, reference compound], the EC50 in data set [1] came to 0.04 ± 0.008 µM; in [2], 0.08 ± 0.01 µM; with HIV-1 IIIB (setting [9]), 0.003 ± 0.001 µM; in data set [3], 0.28 ± 0.07 µM; in data set [4] it was 0.006 ± 0.001 µM; in data set [5] it was 0.24 ± 0.06 µM. In data set [7], the EC50 is 0.005 ± 0.002 µM. Also, in the data set with HIV-1 IIIB (MT-4 cells), the “SI (selectivity index, ratio CC50/EC50 (WT))” value is on record as more than 3939. In addition, the CC50 at 5 days in data set [6] was more than 6.3 µM.
For `N#Cc1ccc(Nc2nccc(C(C#N)c3ccc(C#N)cc3Cl)n2)cc1` (centres unmarked) [Compound A8, 4-(4-(cyano-(2-chloro-4-cyanophenyl)methyl)-pyrimidin-2-ylamino)benzonitrile], the EC50 was not below 2.37 µM in data set [1]; 2.13 ± 0.22 µM in [2]; 0.063 ± 0.009 µM with HIV-1 IIIB (setting [8]); more than 4.59 µM in [3]; 1.87 ± 0.21 µM in data set [4]; more than 4.59 µM in data set [5]. Moreover, in data set [7], the EC50 was 2.2 ± 0.35 µM. The CC50 at 5 days in data set [6] stood at 4.6 ± 2.7 µM.
For the compound `Cc1ccnc2c1NC(=O)c1cccnc1N2C1CC1` [Nevirapine, nevirapine, reference compound], the EC50 in data set [1] is 0.98 ± 0.39 µM; in data set [2], 4.7 ± 0.63 µM; with HIV-1 IIIB (setting [9]), 0.2 ± 0.1 µM; in data set [3] it was not below 4.28 µM; in [5], more than 15 µM; in data set [7] it was 0.2 ± 0.15 µM. The same compound displayed a CC50 at 5 days in data set [6] of more than 15 µM.
As to `N#Cc1ccc(Nc2nccc(C(C#N)c3ccc(C#N)cc3)n2)cc1` (centres unmarked) [Compound A1, 4-(4-(cyano-(4-cyanophenyl)methyl)-pyrimidin-2-ylamino)benzonitrile], the EC50 in data set [1] was not below 12.3 µM; in data set [2], more than 32.7 µM; in the data set on HIV-1 IIIB (setting [8]), 3.27 ± 2.25 µM; in [3] it was more than 32.7 µM; in data set [4] it was 11.3 ± 1.51 µM; in data set [5], more than 32.7 µM. Besides, in data set [7], the half-maximal effective concentration (EC50) was more than 32.7 µM. The CC50 at 5 days in data set [6] stood at 32.7 ± 9.9 µM.

By EC50 is commonly meant the concentration needed to bring the measured effect to its halfway point. A word on the melting point: it is the temperature, or range, at which the solid turns liquid. A word on the CC50: it is the concentration giving 50% cytotoxicity.
